Measurements from patent publication US20230085307A1, “PYRIDAZINONE COMPOUND AND HERBICIDE” (NISSAN CHEMICAL CORPORATION, priority 2019, published 2023).

Legend:
southern crabgrass [1] = assay: Test Example 5: herbicidal effect by foliage application, plastic box (Table 20, symbol F); assay type: in vivo, southern crabgrass (Digitaria ciliaris); details: foliage application, AAH 320 g/ha, three weeks after application
Procedure, shortened: (§1)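 Foliar spray test: emulsion formulation diluted in water to a set application rate, sprayed onto 14-day-old plants raised in diluvial soil at 25° C to 30° C under glass. Both herbicidal effect and crop effect rated visually three weeks later.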

redroot pigweed [2] = assay: Test Example 5: herbicidal effect by foliage application, plastic box (Table 20, symbol N); assay type: in vivo, redroot pigweed (Amaranthus retroflexus); details: foliage application, AAH 320 g/ha, three weeks after application
Procedure, shortened: as §1

lambsquarters [3] = assay: Test Example 4: herbicidal effect by soil treatment (Table 19, symbol O); assay type: in vivo, lambsquarters (Chenopodium album); details: AAH 320 g/ha
Procedure, shortened: (§2)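 Herbicidal effect was rated 3 weeks after treatment, using the scoring criteria of an earlier test. The compound, formulated as an emulsion and diluted in water to a set herbicide amount, had been sprayed uniformly on soil over freshly sown seeds. Growth took place in a greenhouse at 25° C. to 30° C.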

velvetleaf [4] = assay: Test Example 5: herbicidal effect by foliage application, plastic box (Table 20, symbol M); assay type: in vivo, velvetleaf (Abutilon theophrasti); details: foliage application, AAH 320 g/ha, three weeks after application
Procedure, shortened: as §1

green foxtail [5] = assay: Test Example 4: herbicidal effect by soil treatment (Table 19, symbol G); assay type: in vivo, green foxtail (Setaria viridis); details: AAH 320 g/ha
Procedure, shortened: as §2

wild oat [6] = assay: Test Example 4: herbicidal effect by soil treatment (Table 19, symbol I); assay type: in vivo, wild oat (Avena fatua); details: AAH 320 g/ha
Procedure, shortened: as §2

chickweed [7] = assay: Test Example 4: herbicidal effect by soil treatment (Table 19, symbol P); assay type: in vivo, common chickweed (Stellaria media); details: AAH 320 g/ha
Procedure, shortened: as §2

blackgrass [8] = assay: Test Example 5: herbicidal effect by foliage application, plastic box (Table 20, symbol J); assay type: in vivo, blackgrass (Alopecurus myosuroides); details: foliage application, AAH 320 g/ha, three weeks after application
Procedure, shortened: as §1

lambsquarters [9] = assay: Test Example 5: herbicidal effect by foliage application, plastic box (Table 20, symbol O); assay type: in vivo, lambsquarters (Chenopodium album); details: foliage application, AAH 320 g/ha, three weeks after application
Procedure, shortened: as §1

southern crabgrass [10] = assay: Test Example 4: herbicidal effect by soil treatment (Table 19, symbol F); assay type: in vivo, southern crabgrass (Digitaria ciliaris); details: AAH 320 g/ha
Procedure, shortened: as §2

barnyard grass [11] = assay: Test Example 3: herbicidal effect by foliage application, Wagner pot (Table 18, symbol H); assay type: in vivo, barnyard grass (Echinochloa crus-galli); details: 320 g/ha
Procedure, shortened: (§3)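 Plants were sown in alluvial soil held under 0.1–0.5 cm standing water and grown 14 days in a greenhouse at 25–30 °C. An emulsifiable formulation, water-diluted to the set dose, was then sprayed onto the foliage, and effects were scored three weeks later using previously defined criteria.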

Italian ryegrass [12] = assay: Test Example 5: herbicidal effect by foliage application, plastic box (Table 20, symbol K); assay type: in vivo, Italian ryegrass (Lolium multiflorum); details: foliage application, AAH 320 g/ha, three weeks after application
Procedure, shortened: as §1

barnyard grass [13] = assay: Test Example 4: herbicidal effect by soil treatment (Table 19, symbol H); assay type: in vivo, barnyard grass (Echinochloa crus-galli); details: AAH 320 g/ha
Procedure, shortened: as §2

blackgrass [14] = assay: Test Example 4: herbicidal effect by soil treatment (Table 19, symbol J); assay type: in vivo, blackgrass (Alopecurus myosuroides); details: AAH 320 g/ha
Procedure, shortened: as §2

windgrass [15] = assay: Test Example 4: herbicidal effect by soil treatment (Table 19, symbol L); assay type: in vivo, windgrass (Apera spica-venti); details: AAH 320 g/ha
Procedure, shortened: as §2

green foxtail [16] = assay: Test Example 5: herbicidal effect by foliage application, plastic box (Table 20, symbol G); assay type: in vivo, green foxtail (Setaria viridis); details: foliage application, AAH 320 g/ha, three weeks after application
Procedure, shortened: as §1

windgrass [17] = assay: Test Example 5: herbicidal effect by foliage application, plastic box (Table 20, symbol L); assay type: in vivo, windgrass (Apera spica-venti); details: foliage application, AAH 320 g/ha, three weeks after application
Procedure, shortened: as §1

barnyard grass [18] = assay: Test Example 5: herbicidal effect by foliage application, plastic box (Table 20, symbol H); assay type: in vivo, barnyard grass (Echinochloa crus-galli); details: foliage application, AAH 320 g/ha, three weeks after application
Procedure, shortened: as §1

redroot pigweed [19] = assay: Test Example 4: herbicidal effect by soil treatment (Table 19, symbol N); assay type: in vivo, redroot pigweed (Amaranthus retroflexus); details: AAH 320 g/ha
Procedure, shortened: as §2

velvetleaf [20] = assay: Test Example 4: herbicidal effect by soil treatment (Table 19, symbol M); assay type: in vivo, velvetleaf (Abutilon theophrasti); details: AAH 320 g/ha
Procedure, shortened: as §2

persian speedwell [21] = assay: Test Example 5: herbicidal effect by foliage application, plastic box (Table 20, symbol R); assay type: in vivo, Persian speedwell (Veronica persica); details: foliage application, AAH 320 g/ha, three weeks after application
Procedure, shortened: as §1

rice flat sedge = assay: Test Example 3: herbicidal effect by foliage application, Wagner pot (Table 18, symbol E); assay type: in vivo, rice flat sedge (Cyperus iria); details: 320 g/ha
Procedure, shortened: as §3

persian speedwell [22] = assay: Test Example 4: herbicidal effect by soil treatment (Table 19, symbol R); assay type: in vivo, Persian speedwell (Veronica persica); details: AAH 320 g/ha
Procedure, shortened: as §2

chickweed [23] = assay: Test Example 5: herbicidal effect by foliage application, plastic box (Table 20, symbol P); assay type: in vivo, common chickweed (Stellaria media); details: foliage application, AAH 320 g/ha, three weeks after application
Procedure, shortened: as §1

Chinese sprangletop = assay: Test Example 3: herbicidal effect by foliage application, Wagner pot (Table 18, symbol D); assay type: in vivo, chinese sprangletop (Leptochloa chinensis); details: 320 g/ha
Procedure, shortened: as §3

Italian ryegrass [24] = assay: Test Example 4: herbicidal effect by soil treatment (Table 19, symbol K); assay type: in vivo, Italian ryegrass (Lolium multiflorum); details: AAH 320 g/ha
Procedure, shortened: as §2

wild oat [25] = assay: Test Example 5: herbicidal effect by foliage application, plastic box (Table 20, symbol I); assay type: in vivo, wild oat (Avena fatua); details: foliage application, AAH 320 g/ha, three weeks after application
Procedure, shortened: as §1

SMILES: CCCC(=O)Oc1c(OC)nn(C)c(=O)c1-c1c(-c2ccc(C#N)cc2)sc2ccccc12 [1-171]
- F: southern crabgrass, herbicidal effect (southern crabgrass [1]): 0 (Herbicidal rate of 5% or less (almost no effect))
- N: redroot pigweed, herbicidal effect (redroot pigweed [2]): 5 (Herbicidal rate of 90% or more (almost completely withered))
- O: lambsquarters, herbicidal effect rating (lambsquarters [3]): 3 (Herbicidal rate of 40% or more and less than 70%)
- M: velvetleaf, herbicidal effect (velvetleaf [4]): 4 (Herbicidal rate of 70% or more and less than 90%)
- G: green foxtail, herbicidal effect rating (green foxtail [5]): 0 (Herbicidal rate of 5% or less (almost no effect))
- I: wild oat, herbicidal effect rating (wild oat [6]): 0 (Herbicidal rate of 5% or less (almost no effect))
- P: chickweed, herbicidal effect rating (chickweed [7]): 5 (Herbicidal rate of 90% or more (almost completely withered))
- J: blackgrass, herbicidal effect (blackgrass [8]): 0 (Herbicidal rate of 5% or less (almost no effect))
- O: lambsquarters, herbicidal effect (lambsquarters [9]): 4 (Herbicidal rate of 70% or more and less than 90%)
- F: southern crabgrass, herbicidal effect rating (southern crabgrass [10]): 5 (Herbicidal rate of 90% or more (almost completely withered))
- herbicidal effect on H (barnyard grass), rating 0-5 (barnyard grass [11]): 3 (Herbicidal rate of 40% or more and less than 70%)
- K: Italian ryegrass, herbicidal effect (Italian ryegrass [12]): 0 (Herbicidal rate of 5% or less (almost no effect))
- H: barnyard grass, herbicidal effect rating (barnyard grass [13]): 0 (Herbicidal rate of 5% or less (almost no effect))
- J: blackgrass, herbicidal effect rating (blackgrass [14]): 0 (Herbicidal rate of 5% or less (almost no effect))
- L: windgrass, herbicidal effect rating (windgrass [15]): 0 (Herbicidal rate of 5% or less (almost no effect))
- G: green foxtail, herbicidal effect (green foxtail [16]): 0 (Herbicidal rate of 5% or less (almost no effect))
- L: windgrass, herbicidal effect (windgrass [17]): 0 (Herbicidal rate of 5% or less (almost no effect))
- H: barnyard grass, herbicidal effect (barnyard grass [18]): 0 (Herbicidal rate of 5% or less (almost no effect))
- N: redroot pigweed, herbicidal effect rating (redroot pigweed [19]): 5 (Herbicidal rate of 90% or more (almost completely withered))
- M: velvetleaf, herbicidal effect rating (velvetleaf [20]): 0 (Herbicidal rate of 5% or less (almost no effect))
- R: persian speedwell, herbicidal effect (persian speedwell [21]): 4 (Herbicidal rate of 70% or more and less than 90%)
- herbicidal effect on E (rice flat sedge), rating 0-5 (rice flat sedge): 4 (Herbicidal rate of 70% or more and less than 90%)
- R: persian speedwell, herbicidal effect rating (persian speedwell [22]): 4 (Herbicidal rate of 70% or more and less than 90%)
- P: chickweed, herbicidal effect (chickweed [23]): 5 (Herbicidal rate of 90% or more (almost completely withered))
- herbicidal effect on D (Chinese sprangletop), rating 0-5 (Chinese sprangletop): 0 (Herbicidal rate of 5% or less (almost no effect))
- K: Italian ryegrass, herbicidal effect rating (Italian ryegrass [24]): 0 (Herbicidal rate of 5% or less (almost no effect))
- I: wild oat, herbicidal effect (wild oat [25]): 0 (Herbicidal rate of 5% or less (almost no effect))

SMILES: COc1cc(F)ccc1-c1sc2ccccc2c1-c1c(O)c(OC)nn(C)c1=O [1-176]
- F: southern crabgrass, herbicidal effect (southern crabgrass [1]): 4 (Herbicidal rate of 70% or more and less than 90%)
- N: redroot pigweed, herbicidal effect (redroot pigweed [2]): 5 (Herbicidal rate of 90% or more (almost completely withered))
- O: lambsquarters, herbicidal effect rating (lambsquarters [3]): 4 (Herbicidal rate of 70% or more and less than 90%)
- M: velvetleaf, herbicidal effect (velvetleaf [4]): 5 (Herbicidal rate of 90% or more (almost completely withered))
- G: green foxtail, herbicidal effect rating (green foxtail [5]): 5 (Herbicidal rate of 90% or more (almost completely withered))
- I: wild oat, herbicidal effect rating (wild oat [6]): 3 (Herbicidal rate of 40% or more and less than 70%)
- P: chickweed, herbicidal effect rating (chickweed [7]): 5 (Herbicidal rate of 90% or more (almost completely withered))
- J: blackgrass, herbicidal effect (blackgrass [8]): 4 (Herbicidal rate of 70% or more and less than 90%)
- O: lambsquarters, herbicidal effect (lambsquarters [9]): 5 (Herbicidal rate of 90% or more (almost completely withered))
- F: southern crabgrass, herbicidal effect rating (southern crabgrass [10]): 4 (Herbicidal rate of 70% or more and less than 90%)
- herbicidal effect on H (barnyard grass), rating 0-5 (barnyard grass [11]): 4 (Herbicidal rate of 70% or more and less than 90%)
- K: Italian ryegrass, herbicidal effect (Italian ryegrass [12]): 3 (Herbicidal rate of 40% or more and less than 70%)
- H: barnyard grass, herbicidal effect rating (barnyard grass [13]): 5 (Herbicidal rate of 90% or more (almost completely withered))
- J: blackgrass, herbicidal effect rating (blackgrass [14]): 5 (Herbicidal rate of 90% or more (almost completely withered))
- L: windgrass, herbicidal effect rating (windgrass [15]): 5 (Herbicidal rate of 90% or more (almost completely withered))
- G: green foxtail, herbicidal effect (green foxtail [16]): 5 (Herbicidal rate of 90% or more (almost completely withered))
- L: windgrass, herbicidal effect (windgrass [17]): 5 (Herbicidal rate of 90% or more (almost completely withered))
- H: barnyard grass, herbicidal effect (barnyard grass [18]): 5 (Herbicidal rate of 90% or more (almost completely withered))
- N: redroot pigweed, herbicidal effect rating (redroot pigweed [19]): 5 (Herbicidal rate of 90% or more (almost completely withered))
- M: velvetleaf, herbicidal effect rating (velvetleaf [20]): 1 (Herbicidal rate of 5% or more and less than 20%)
- R: persian speedwell, herbicidal effect (persian speedwell [21]): 5 (Herbicidal rate of 90% or more (almost completely withered))
- herbicidal effect on E (rice flat sedge), rating 0-5 (rice flat sedge): 5 (Herbicidal rate of 90% or more (almost completely withered))
- R: persian speedwell, herbicidal effect rating (persian speedwell [22]): 5 (Herbicidal rate of 90% or more (almost completely withered))
- P: chickweed, herbicidal effect (chickweed [23]): 5 (Herbicidal rate of 90% or more (almost completely withered))
- herbicidal effect on D (Chinese sprangletop), rating 0-5 (Chinese sprangletop): 3 (Herbicidal rate of 40% or more and less than 70%)
- K: Italian ryegrass, herbicidal effect rating (Italian ryegrass [24]): 1 (Herbicidal rate of 5% or more and less than 20%)
- I: wild oat, herbicidal effect (wild oat [25]): 4 (Herbicidal rate of 70% or more and less than 90%)
